Source: ChEMBL document CHEMBL1201862, “PubChem BioAssay data set” (2004)
Calls of active or inactive are those of the source.

How the values were obtained:
[1] = biological target: Nonstructural protein 1 (Influenza A virus, UniProt Q194T2); assay type: functional, Influenza A virus (A/California/07/2009(H1N1))
[2] = viability of uninfected HEp-2 cells – cell-based, HTS, cytotoxicity control for RSV inhibitor project, dose response (AID 2410); assay type: functional; details: human respiratory syncytial virus
[3] = tested on: Streptococcus sp. 'group A'; assay: Streptococcus pyogenes SK(-)GAS viability under kanamycin – luminescence, BacTiterGlo, confirmation, counter-screen for streptokinase expression inhibitor project, dose response (AID 1900); assay type: functional, organism-based
[4] = biological target: T1, Streptokinase A (Streptococcus pyogenes serotype M1, UniProt P10520); assay: viability-normalized secreted streptokinase activity reduction – plasminogen activation absorbance, OD405, dose response (AID 1914); assay type: functional, Streptococcus pyogenes M1 GAS;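 further: secreted streptokinase activity via plasminogen activation per viability signal from cell pellet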
T1 sequence (P10520 whole entry): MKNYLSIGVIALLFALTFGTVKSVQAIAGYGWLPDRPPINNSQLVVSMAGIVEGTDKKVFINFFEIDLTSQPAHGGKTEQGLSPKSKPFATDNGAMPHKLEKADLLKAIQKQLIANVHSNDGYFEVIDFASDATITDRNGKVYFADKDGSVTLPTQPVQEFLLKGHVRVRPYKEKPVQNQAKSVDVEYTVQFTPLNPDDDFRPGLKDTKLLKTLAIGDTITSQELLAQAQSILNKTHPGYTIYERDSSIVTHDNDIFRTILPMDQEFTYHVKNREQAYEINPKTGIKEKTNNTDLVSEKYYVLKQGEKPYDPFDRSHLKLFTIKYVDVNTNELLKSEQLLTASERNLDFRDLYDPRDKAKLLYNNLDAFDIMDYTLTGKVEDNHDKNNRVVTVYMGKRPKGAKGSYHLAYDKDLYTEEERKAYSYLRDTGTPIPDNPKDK

[5] = tested on: Streptococcus; assay: GAS UMAA2166 growth inhibition – luminescence, BacTiterGlo, counter-screen for streptokinase expression inhibitor project, dose response (AID 1915); assay type: functional, organism-based;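 further: potency for reduction of bacterial viability or growth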
[6] = biological target: Cytochrome P450 3A4 (Homo sapiens, UniProt P08684);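 further: CYP3A4 tested as one member of a cytochrome P450 panel screen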
Sequence of Cytochrome P450 3A4 (P08684 whole entry): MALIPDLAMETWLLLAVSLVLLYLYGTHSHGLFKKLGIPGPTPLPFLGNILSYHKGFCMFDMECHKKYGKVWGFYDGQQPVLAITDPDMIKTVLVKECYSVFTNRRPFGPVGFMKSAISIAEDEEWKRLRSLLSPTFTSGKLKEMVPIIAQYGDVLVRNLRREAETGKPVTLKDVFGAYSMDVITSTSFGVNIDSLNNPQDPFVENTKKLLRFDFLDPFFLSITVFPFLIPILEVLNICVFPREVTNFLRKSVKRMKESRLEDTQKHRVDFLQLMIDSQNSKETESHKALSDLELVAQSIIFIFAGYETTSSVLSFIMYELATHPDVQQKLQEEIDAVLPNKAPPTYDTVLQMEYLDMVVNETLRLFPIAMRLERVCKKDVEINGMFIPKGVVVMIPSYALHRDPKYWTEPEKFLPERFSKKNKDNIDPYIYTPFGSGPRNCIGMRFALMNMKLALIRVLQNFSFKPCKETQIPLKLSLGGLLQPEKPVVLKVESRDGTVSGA

[7] = biological target: T2, Long-chain-fatty-acid--AMP ligase FadD28 (Mycobacterium tuberculosis, UniProt P9WQ59); assay: Fluorescence polarization aasay to screen for inhibitors that compete for the binding of FadD28 to a bisubstrate Measured in Biochemical System Using Plate Reader - 2147-01_Inhibitor_Dose_CherryPick_Activity.; assay type: functional, Mycobacterium tuberculosis H37Rv
T2 sequence (P9WQ59 whole entry): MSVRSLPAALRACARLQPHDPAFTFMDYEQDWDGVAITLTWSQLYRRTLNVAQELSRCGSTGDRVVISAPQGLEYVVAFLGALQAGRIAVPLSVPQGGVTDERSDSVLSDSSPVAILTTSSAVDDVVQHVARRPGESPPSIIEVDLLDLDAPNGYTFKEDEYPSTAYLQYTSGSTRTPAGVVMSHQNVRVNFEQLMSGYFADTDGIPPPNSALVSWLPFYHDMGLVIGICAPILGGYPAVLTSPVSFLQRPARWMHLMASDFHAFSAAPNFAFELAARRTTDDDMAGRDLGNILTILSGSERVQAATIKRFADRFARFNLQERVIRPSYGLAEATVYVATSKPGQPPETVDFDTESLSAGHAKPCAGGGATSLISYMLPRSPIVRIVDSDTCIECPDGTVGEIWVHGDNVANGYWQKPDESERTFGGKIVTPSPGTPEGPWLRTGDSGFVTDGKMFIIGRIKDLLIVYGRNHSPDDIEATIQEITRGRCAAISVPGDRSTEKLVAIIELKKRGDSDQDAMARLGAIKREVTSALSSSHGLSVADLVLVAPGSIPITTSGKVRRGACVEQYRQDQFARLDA

[8] = biological target: Cytochrome P450 2C9 (Homo sapiens, UniProt P11712)
Sequence of Cytochrome P450 2C9 (P11712 whole entry): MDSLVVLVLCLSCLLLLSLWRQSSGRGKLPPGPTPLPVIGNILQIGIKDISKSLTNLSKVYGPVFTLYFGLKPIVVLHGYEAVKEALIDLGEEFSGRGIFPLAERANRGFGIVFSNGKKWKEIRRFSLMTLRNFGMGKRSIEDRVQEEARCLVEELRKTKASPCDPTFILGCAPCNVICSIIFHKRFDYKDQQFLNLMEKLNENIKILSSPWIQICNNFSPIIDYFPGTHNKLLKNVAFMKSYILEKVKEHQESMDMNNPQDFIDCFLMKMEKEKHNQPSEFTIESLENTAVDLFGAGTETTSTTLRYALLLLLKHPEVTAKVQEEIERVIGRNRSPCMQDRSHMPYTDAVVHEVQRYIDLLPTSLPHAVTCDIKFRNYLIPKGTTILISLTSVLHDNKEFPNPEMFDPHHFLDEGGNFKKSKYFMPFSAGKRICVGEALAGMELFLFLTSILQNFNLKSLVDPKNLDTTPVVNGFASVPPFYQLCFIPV

[9] = biological target: Cytochrome P450 2C19 (Homo sapiens, UniProt P33261); assay: Cytochrome panel assay with activity outcomes. Panel member name: p450-cyp2c19 Compounds with AC50 equal or less than 10 uM are considered active; assay type: functional; details: read-out: AC50
Sequence of Cytochrome P450 2C19 (P33261 whole entry): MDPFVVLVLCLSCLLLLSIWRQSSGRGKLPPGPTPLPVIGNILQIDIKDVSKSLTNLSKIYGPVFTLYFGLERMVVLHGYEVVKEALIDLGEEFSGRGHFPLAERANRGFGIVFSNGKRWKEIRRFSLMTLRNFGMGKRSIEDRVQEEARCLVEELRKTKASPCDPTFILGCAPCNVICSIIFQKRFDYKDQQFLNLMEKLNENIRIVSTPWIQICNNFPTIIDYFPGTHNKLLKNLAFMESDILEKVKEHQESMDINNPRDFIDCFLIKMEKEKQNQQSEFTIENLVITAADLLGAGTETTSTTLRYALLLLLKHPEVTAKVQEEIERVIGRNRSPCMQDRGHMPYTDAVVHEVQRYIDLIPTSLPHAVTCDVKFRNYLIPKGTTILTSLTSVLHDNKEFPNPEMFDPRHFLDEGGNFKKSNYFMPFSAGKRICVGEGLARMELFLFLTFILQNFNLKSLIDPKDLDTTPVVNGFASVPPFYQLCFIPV

[10] = biological target: T3, Estrogen receptor (Homo sapiens, UniProt P03372);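 further: potency for inhibiting coactivator peptide recruitment to the receptor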
T3 sequence (P03372 whole entry): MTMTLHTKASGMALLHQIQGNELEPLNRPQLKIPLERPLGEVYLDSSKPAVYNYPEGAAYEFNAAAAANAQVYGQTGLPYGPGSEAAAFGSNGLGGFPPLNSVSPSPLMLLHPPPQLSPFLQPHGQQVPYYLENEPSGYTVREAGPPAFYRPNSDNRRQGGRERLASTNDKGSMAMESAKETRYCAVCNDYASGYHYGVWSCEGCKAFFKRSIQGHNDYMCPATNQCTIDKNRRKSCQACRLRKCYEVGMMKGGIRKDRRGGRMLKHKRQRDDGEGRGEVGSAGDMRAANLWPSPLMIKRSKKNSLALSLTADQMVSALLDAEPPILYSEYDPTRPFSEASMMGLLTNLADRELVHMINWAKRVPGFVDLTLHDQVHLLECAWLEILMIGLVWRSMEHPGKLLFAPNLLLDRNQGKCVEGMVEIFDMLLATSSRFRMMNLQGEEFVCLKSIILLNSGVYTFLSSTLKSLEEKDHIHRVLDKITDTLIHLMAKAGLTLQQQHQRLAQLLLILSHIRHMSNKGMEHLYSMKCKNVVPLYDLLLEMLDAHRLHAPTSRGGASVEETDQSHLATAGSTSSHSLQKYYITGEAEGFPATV

[11] = tested on: INS1; assay: INS-1E survival protection against cytokine death – cell-based, luminescence, retest, dose response (AID 449756); assay type: functional; details: Rattus norvegicus;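 further: cell death triggered by IL-1 beta plus TNF-alpha plus IFN-gamma mixture; protective hits raise ATP signal compared with cytokine alone wells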
[12] = biological target: Cytochrome P450 2D6 (Homo sapiens, UniProt P10635);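 further: CYP2D6 member of a cytochrome P450 panel assay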
Sequence of Cytochrome P450 2D6 (P10635 whole entry): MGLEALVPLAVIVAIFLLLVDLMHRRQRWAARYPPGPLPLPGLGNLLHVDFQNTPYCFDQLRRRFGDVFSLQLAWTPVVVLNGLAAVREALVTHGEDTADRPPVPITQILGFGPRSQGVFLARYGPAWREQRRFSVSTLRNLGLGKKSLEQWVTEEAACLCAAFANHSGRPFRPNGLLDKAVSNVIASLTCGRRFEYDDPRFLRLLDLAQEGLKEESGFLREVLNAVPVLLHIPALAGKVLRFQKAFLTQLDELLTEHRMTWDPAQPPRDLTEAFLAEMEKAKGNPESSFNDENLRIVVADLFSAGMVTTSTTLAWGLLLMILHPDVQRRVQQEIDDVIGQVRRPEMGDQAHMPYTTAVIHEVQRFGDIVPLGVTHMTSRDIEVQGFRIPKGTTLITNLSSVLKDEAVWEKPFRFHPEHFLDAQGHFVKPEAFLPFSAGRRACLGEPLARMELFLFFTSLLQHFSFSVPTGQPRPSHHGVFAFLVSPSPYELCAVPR

[13] = biological target: T4, Cytochrome P450 1A2 (Homo sapiens, UniProt P05177);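 further: PubChem cytochrome P450 panel assay, CYP1A2 panel member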
T4 sequence (P05177 whole entry): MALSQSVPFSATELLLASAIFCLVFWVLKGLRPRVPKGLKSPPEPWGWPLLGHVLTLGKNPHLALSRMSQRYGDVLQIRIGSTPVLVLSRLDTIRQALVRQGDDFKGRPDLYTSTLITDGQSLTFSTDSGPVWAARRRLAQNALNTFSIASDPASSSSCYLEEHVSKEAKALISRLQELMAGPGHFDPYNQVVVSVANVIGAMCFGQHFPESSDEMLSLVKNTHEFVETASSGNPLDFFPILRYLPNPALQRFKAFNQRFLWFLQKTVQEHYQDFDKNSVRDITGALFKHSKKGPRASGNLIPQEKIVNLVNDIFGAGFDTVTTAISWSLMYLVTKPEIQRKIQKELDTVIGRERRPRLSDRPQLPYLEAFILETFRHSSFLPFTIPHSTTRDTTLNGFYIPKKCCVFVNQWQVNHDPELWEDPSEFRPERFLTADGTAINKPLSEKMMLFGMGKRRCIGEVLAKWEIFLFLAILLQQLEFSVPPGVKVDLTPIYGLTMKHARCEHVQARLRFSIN

Sequence of Nonstructural protein 1 (Q194T2 whole entry): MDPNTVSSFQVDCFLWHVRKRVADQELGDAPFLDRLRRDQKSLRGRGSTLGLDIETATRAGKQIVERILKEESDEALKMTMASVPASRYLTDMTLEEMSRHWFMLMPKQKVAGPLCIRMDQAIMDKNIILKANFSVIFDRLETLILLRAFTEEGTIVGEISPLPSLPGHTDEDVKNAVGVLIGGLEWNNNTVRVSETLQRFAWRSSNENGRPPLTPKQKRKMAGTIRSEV

For O=C1NC(=S)N(C2CC2)C(=O)/C1=C/NNC(=O)c1ccccc1Cl, the IC50 [1] was 20.4 µM (active).
With CC(C)(C)c1nnc(NC(=O)c2cc(-c3ccccc3)nc3ccccc23)s1 the CC50 [2] was 14.1 µM (active), the EC50 [3] was 9.69 µM (active) and the EC50 [4] was > 150 µM (not active). The EC50 [5] was 49.3 µM (active) and the AC50 [6] was “inconclusive”.
For Cc1ccc(CNC(=O)C(Cc2ccccc2)NS(=O)(=O)c2ccc(Br)s2)cc1 (stereo unspecified), the AC50 [7] was 6.7 µM (active).
With O=C(c1ccc(Cl)cc1)N1CCN(c2cc(O)nnc2-c2ccccc2)CC1 the AC50 [8] was 0.355 µM (inconclusive), the AC50 [6] was “inconclusive” and the AC50 [9] was 1.41 µM (inconclusive).
In the case of CCOc1ccccc1/C=c1\sc2nc(-c3ccco3)nn2c1=O, the IC50 [10] is reported as > 50 µM (not active).
For Cc1ccc(C2C(/C=N/c3c(C)n(C)n(-c4ccccc4)c3=O)=C(c3ccccc3)Oc3ccccc32)cc1 (stereo unspecified), the AC50 [11] was 6.97 µM (active), the AC50 [8] was 2.24 µM (inconclusive) and the IC50 [1] was > 100 µM (active). For the same compound, the AC50 [9] was 3.16 µM (inconclusive).
With Cc1c(C2CCN(CCc3ccccc3)CC2)noc1-c1ccc(Cl)cc1 the AC50 [12] was 1.58 µM (inconclusive), the AC50 [6] was “inconclusive” and the AC50 [13] was 25.1 µM (inconclusive).
For Cc1cccc(C)c1NC(=O)CN1CCN(CCCC(c2ccc(F)cc2)c2ccc(F)cc2)CC1 [LIDOFLAZINE], the AC50 [8] was 15.8 µM (inconclusive), the AC50 [6] was “inconclusive” and the AC50 [13] was 15.8 µM (inconclusive).
